pEC50, pIC50: −log10 of the molar value.

As a reminder, the pEC50 is −log10 of the EC50, conventionally taken in molar units.

Test [1] concerns MIA PaCa-2 human pancreatic carcinoma. Briefly: MIA PaCa-2 CCK-8 proliferation assay. In kind it is cell-based. Conditions: Homo sapiens, MIA PaCa-2, 72 h, MIA PaCa-2 cells. The method, then: The following cancer cell lines were employed: BT-474 human breast carcinoma (ATCC, #HTB-20); MIA PaCa-2 human pancreatic carcinoma [2 copies KRAS(G12C)](ATCC, #CRL-1420); NCI-H23 human non-small cell lung cancer [1 copy KRAS(G12C)](ATCC, #CRL-5800); NCI-H358 human non-small cell lung cancer [1 copy KRAS(G12C)](ATCC, #CRL-5807); LU65A human lung carcinoma (Pharmaron, Beijing, China). Cell lines were cultured essentially according to ATCC and Pharmaron recommendations.
Cancer Cell Line Proliferation (CCK-8) Assays
3-fold serial dilutions of each test compound were prepared ranging from 20 μM to 1.02 nM.
% Inhibition=100−(D−B)/(S−B)*100%. • S: Absorbance of cells treated with DMSO • D: Absorbance of compound-treated cells • B: Absorbance of medium with DMSO without cells
For orientation: Tetrazolium assays rely on reduction of a dye to a coloured formazan, in cell work by metabolically active cells.

The target in test [2] is KRAS(G12C) (Homo sapiens, UniProt P01116, G12C). The experiment in a line: KRAS(G12C)/SOS1 homogeneous time-resolved fluorescence (HTRF) assay. The arrangement: purchased Cisbio 63ADK000CB16PEG. Particulars: absence of GTP, 4° C. for 3 hr, read-out: KRAS (G12C) binding. On the procedure:
KRAS(G12C)/SOS1 Homogeneous Time-Resolved Fluorescence (HTRF) Assay
Binding of test compounds to KRAS(G12C) protein, which in turn blocks KRAS(G12C) interaction with the SOS1 protein, was measured in the absences of GTP by homogeneous time-resolved fluorescence (HTRF) using the KRAS-G12C/SOS1 Binding Assay Kit (Cisbio, #63ADK000CB16PEG), following the manufacturer's instructions, except as noted. 3-fold serial dilutions of each test compound were prepared ranging from […] to 1.02 nM. The test compound was mixed and incubated with reaction components, incubated in a sealed plate at 4° C. for 3 hr and fluorescence was measured using a PerkinElmer Envision plate reader.
A general note: TR-FRET usually uses a lanthanide donor and a delayed reading to cut background.

Test [3] deals with T1, HSP90a protein (Homo sapiens, UniProt P07900).
T1 construct: purchased BPS Bioscience 50298
The experiment in a line: HSP90α-binding fluorescent polarization (FP) assay, BODIPY-labeled RNK04010 probe. Conditions: FP competition with RNK04010 (BODIPY-labeled), 5 nM, 300 min at 25° C. The method, then:
HSP90α-Binding Fluorescent Polarization (FP) Assay
Binding of test compounds to HSP90a protein was measured by fluorescent polarization (FP) using the HSP90a (N-terminal) Assay Kit (BPS Bioscience, #50298), following the manufacturer's instructions, except as noted. Fluorescently labeled HSP90-binding compounds, either the provided FITC-geldanamycin (5 nM final concentration) or RNK04010, a triazolone-based HSP90 binding small molecule labeled with BODIPY through a piperizine-phenyl linker (5 nM final concentration) were employed. A 2.5-fold serial dilution of each test compound ranging from 20 μM to 5.2 nM was assayed for binding to HSP90a. After the final step of adding HSP90a protein to each assay well, plates were mixed by brief shaking, incubated at 25° C. for 120 min for FITC-geldanamycin or 300 min for RNK04010, and fluorescence was measured using a PerkinElmer EnVision Plate Reader.

Chain of KRAS(G12C) (P01116 1-188 isoform P01116-2 G12C): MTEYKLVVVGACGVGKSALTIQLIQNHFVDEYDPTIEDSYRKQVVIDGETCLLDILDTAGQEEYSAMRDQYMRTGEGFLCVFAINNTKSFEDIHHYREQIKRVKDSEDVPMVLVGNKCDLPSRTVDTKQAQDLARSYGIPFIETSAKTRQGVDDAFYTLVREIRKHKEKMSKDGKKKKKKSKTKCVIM

Regarding `C=CC(=O)N1CCN(c2nc(OC[C@@H]3CCN3C(=O)C3CCN(Cc4ccc(-n5c(C(N)=O)nnc5-c5cc(C(C)C)c(O)cc5O)cc4)CC3)nc3c2CCN(c2cccc4cccc(Cl)c24)C3)C[C@@H]1CC#N` [Compound 190, 4-(4-((4-((S)-2-(((4-((S)-4-acryloyl-3-(cyanomethyl)piperazin-1-yl)-7-(8-chloronaphthalen-1-yl)-5,6,7,8-tetrahydropyrido[3,4-d]pyrimidin-2-yl)oxy)methyl)azetidine-1-carbonyl)piperidin-1-yl)methyl)phenyl)-5-(2,4-dihydroxy-5-isopropylphenyl)-4H-1,2,4-triazole-3-carboxamide], in test [1], the pEC50 is 6.00 to 7.00. In test [2], the pIC50 is 6.00 to 7.00.
Consider `C=CC(=O)N1CCN(c2nc(OC[C@@H]3C[C@@H](NC(=O)C4CCN(Cc5ccc(-n6c(C(=O)NCCN(CC)CC)nnc6-c6cc(C(C)C)c(O)cc6O)cc5)CC4)CN3C)nc3c2CCN(c2cccc4cccc(Cl)c24)C3)C[C@@H]1CC#N` [Compound 204, N-((3R,5S)-5-(((4-((S)-4-acryloyl-3-(cyanomethyl)piperazin-1-yl)-7-(8-chloronaphthalen-1-yl)-5,6,7,8-tetrahydropyrido[3,4-d]pyrimidin-2-yl)oxy)methyl)-1-methylpyrrolidin-3-yl)-1-(4-(3-((2-(diethylamino)ethyl)carbamoyl)-5-(2,4-dihydroxy-5-isopropylphenyl)-4H-1,2,4-triazol-4-yl)benzyl)piperidine-4-carboxamide], for which the pIC50 in test [3] is greater than 7.00. Further, in test [1], the pEC50 was less than 6.00.
In the same order, the values of `C=C(F)C(=O)N1CCN(c2nc(OCCN3CCN(C(=O)c4ccc(-n5c(O)nnc5-c5cc(C(C)C)c(O)cc5O)cc4)CC3)nc3c2CCN(c2cccc4cccc(Cl)c24)C3)C[C@@H]1CC#N` [Compound 226] are greater than 7.00 and less than 6.00.
`C=CC(=O)N1CCN(c2nc(OCCN3CCC(C(=O)N4CCC(CN5CCC(Cc6ccc(-n7c(O)nnc7-c7cc(O)c(C(C)C)cc7O)cc6)CC5)CC4)CC3)nc3c2CCN(c2cccc4cccc(Cl)c24)C3)C[C@@H]1CC#N` [Compound 238, (S)-2-(1-acryloyl-4-(7-(8-chloronaphthalen-1-yl)-2-(2-(4-(4-((4-(4-(3-(2,5-dihydroxy-4-isopropylphenyl)-5-hydroxy-4H-1,2,4-triazol-4-yl)benzyl)piperidin-1-yl)methyl)piperidine-1-carbonyl)piperidin-1-yl)ethoxy)-5,6,7,8-tetrahydropyrido[3,4-d]pyrimidin-4-yl)piperazin-2-yl)acetonitrile] gave a pEC50 in test [1] of less than 6.00. Besides, the pIC50 in test [2] was 6.00 to 7.00.
As for `C=CC(=O)N1CCN(c2nc(OCCN3CCC(C(=O)N4CCN(Cc5ccc(-n6c(C(=O)NC)nnc6-c6cc(C(C)C)c(O)cc6O)cc5)CC4)CC3)nc3c2CCN(c2cccc4cccc(Cl)c24)C3)C[C@@H]1CC#N` [Compound 239, (S)-4-(4-((4-(1-(2-((4-(4-acryloyl-3-(cyanomethyl)piperazin-1-yl)-7-(8-chloronaphthalen-1-yl)-5,6,7,8-tetrahydropyrido[3,4-d]pyrimidin-2-yl)oxy)ethyl)piperidine-4-carbonyl)piperazin-1-yl)methyl)phenyl)-5-(2,4-dihydroxy-5-isopropylphenyl)-N-methyl-4H-1,2,4-triazole-3-carboxamide], the negative logarithm of the EC50 (pEC50) in test [1] is 6.00 to 7.00. The pIC50 in test [2] was greater than 7.00.
In the case of `C=CC(=O)N1CCN(c2nc(OCCN3CCC(C(=O)N4CCN(Cc5ccc(-n6c(C(=O)NCCN7CCN(S(C)(=O)=O)CC7)nnc6-c6cc(C(C)C)c(O)cc6O)cc5)CC4)CC3)nc3c2CCN(c2cccc4cccc(Cl)c24)C3)C[C@@H]1CC#N` [Compound 242, (S)-4-(4-((4-(1-(2-((4-(4-acryloyl-3-(cyanomethyl)piperazin-1-yl)-7-(8-chloronaphthalen-1-yl)-5,6,7,8-tetrahydropyrido[3,4-d]pyrimidin-2-yl)oxy)ethyl)piperidine-4-carbonyl)piperazin-1-yl)methyl)phenyl)-5-(2,4-dihydroxy-5-isopropylphenyl)-N-(2-(4-(methylsulfonyl)piperazin-1-yl)ethyl)-4H-1,2,4-triazole-3-carboxamide], the negative-log EC50 (pEC50) in test [1] is 6.00 to 7.00. In addition, the pIC50 in test [2] was greater than 7.00.
In test [1], `C=CC(=O)N1CCN(c2nc(OCCN3CCC(C(=O)N4CCN(CCNC(=O)c5nnc(-c6cc(C(C)C)c(O)cc6O)n5-c5ccccc5)CC4)CC3)nc3c2CCN(c2cccc4cccc(Cl)c24)C3)C[C@@H]1CC#N` [Compound 243, (S)—N-(2-(4-(1-(2-((4-(4-acryloyl-3-(cyanomethyl)piperazin-1-yl)-7-(8-chloronaphthalen-1-yl)-5,6,7,8-tetrahydropyrido[3,4-d]pyrimidin-2-yl)oxy)ethyl)piperidine-4-carbonyl)piperazin-1-yl)ethyl)-5-(2,4-dihydroxy-5-isopropylphenyl)-4-phenyl-4H-1,2,4-triazole-3-carboxamide] gave a pEC50 of 6.00 to 7.00. Besides, in test [2], the pIC50 was greater than 7.00.
The molecule `C=CC(=O)N1CCN(c2nc(OCCN3CCC(N4CCN(C(=O)C5CCN(Cc6ccc(-n7c(C(N)=O)nnc7-c7cc(C(C)C)c(O)cc7O)cc6)CC5)CC4)CC3)nc3c2CCN(c2cccc4cccc(Cl)c24)C3)C[C@@H]1CC#N` [Compound 249, (S)-4-(4-((4-(4-(1-(2-((4-(4-acryloyl-3-(cyanomethyl)piperazin-1-yl)-7-(8-chloronaphthalen-1-yl)-5,6,7,8-tetrahydropyrido[3,4-d]pyrimidin-2-yl)oxy)ethyl)piperidin-4-yl)piperazine-1-carbonyl)piperidin-1-yl)methyl)phenyl)-5-(2,4-dihydroxy-5-isopropylphenyl)-4H-1,2,4-triazole-3-carboxamide] had a pEC50 in test [1] of 6.00 to 7.00. For the same molecule, the pIC50 in test [2] is greater than 7.00.
For the molecule `C=CC(=O)N1CCN(c2nc(OC[C@@H]3CC[C@H](C(=O)N4CCN(C(=O)C5CCN(Cc6ccc(-n7c(O)nnc7-c7cc(C(C)C)c(O)cc7O)cc6)CC5)CC4)N3C)nc3c2CCN(c2cccc4cccc(Cl)c24)C3)C[C@@H]1CC#N` [Compound 305, 2-[(2S)-4-[7-(8-chloronaphthalen-1-yl)-2-{[(2S,5R)-5-{4-[1-({4-[3-(2,4-dihydroxy-5-isopropylphenyl)-5-hydroxy-1,2,4-triazol-4-yl]phenyl}methyl)piperidine-4-carbonyl]piperazine-1-carbonyl}-1-methylpyrrolidin-2-yl]methoxy}-5H,6H,8H-pyri-do[3,4-d]pyrimidin-4-yl]-1-(prop-2-enoyl)piperazin-2-yl]acetonitrile], the pIC50 in test [3] was greater than 7.00. The negative logarithm of the EC50 (pEC50) in test [1] was 6.00 to 7.00.
For the molecule `C=CC(=O)N1CCN(c2nc(OC[C@@H]3CC[C@H](C(=O)N4CCN(C(=O)C5CCN(Cc6ccc(-n7c(O)nnc7-c7cc(C)c(O)cc7O)cc6)CC5)CC4)N3C)nc3c2CCN(c2cccc4cccc(Cl)c24)C3)C[C@@H]1CC#N` [Compound 306, 2-[(2S)-4-[7-(8-chloronaphthalen-1-yl)-2-{[(2S,5R)-5-{4-[1-({4-[3-(2,4-dihydroxy-5-methylphenyl)-5-hydroxy-1,2,4-triazol-4-yl]phenyl}methyl)piperidine-4-carbonyl]piperazine-1-carbonyl}-1-methylpyrrolidin-2-yl]methoxy}-5H,6H,8H-pyrido [3,4-d]pyrimidin-4-yl]-1-(prop-2-enoyl)piperazin-2-yl]acetonitrile], the pIC50 in test [3] was greater than 7.00. In test [1], this molecule gave a negative-log EC50 (pEC50) of less than 6.00.
As for `C=CC(=O)N1CCN(c2nc(OC[C@@H]3CC[C@H](C(=O)N4CCN(C(=O)C5CCN(Cc6ccc(-n7c(O)nnc7-c7cc(C(C)C)c(O)cc7O)cc6)CC5)CC4)N3C)nc3c2CCN(c2cccc4cccc(Cl)c24)C3)C[C@@H]1CC#N` [Compound 341, 2-[(2S)-4-[7-(8-chloronaphthalen-1-yl)-2-{[(2S,5R)-5-{4-[1-({4-[3-(2,4-dihydroxy-5-isopropylphenyl)-5-hydroxy-1,2,4-triazol-4-yl]phenyl}methyl)piperidine-4-carbonyl]piperazine-1-carbonyl}-1-methylpyrrolidin-2-yl]methoxy}-5H,6H,8H-pyri-do[3,4-d]pyrimidin-4-yl]-1-(prop-2-enoyl)piperazin-2-yl]acetonitrile], the pIC50 in test [3] and in test [2] was greater than 7.00 in each case.

(Values after patent US20230391772A1, “METHODS AND COMPOSITIONS FOR TARGETED PROTEIN DEGRADATION” (Ranok Therapeutics (Hangzhou) Co. Ltd., priority 2020, published 2023).)
